{
  "source": "BindingDB's records for doi:10.7270/Q2BK19S0",
  "about": "(The Scripps Research Institute Molecular Screening Center, 2010)",
  "target": "Photoreceptor-specific nuclear receptor (Homo sapiens, UniProt Q9Y5X4)",
  "sequence (Q9Y5X4 whole entry)": "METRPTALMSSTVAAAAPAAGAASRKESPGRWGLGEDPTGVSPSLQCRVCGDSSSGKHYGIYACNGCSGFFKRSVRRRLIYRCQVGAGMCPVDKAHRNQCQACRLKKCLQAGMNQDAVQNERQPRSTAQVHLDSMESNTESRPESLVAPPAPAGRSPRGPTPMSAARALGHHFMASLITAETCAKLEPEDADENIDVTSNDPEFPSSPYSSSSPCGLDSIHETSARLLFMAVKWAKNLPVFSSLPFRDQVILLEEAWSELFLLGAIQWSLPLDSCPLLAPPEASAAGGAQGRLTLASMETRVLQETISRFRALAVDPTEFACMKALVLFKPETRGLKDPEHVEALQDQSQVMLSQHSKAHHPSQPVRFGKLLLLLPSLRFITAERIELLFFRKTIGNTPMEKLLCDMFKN",
  "test": "NR2E3 inverse agonists, dose response, biochemical, TR-FRET (AID 463256)",
  "data": [
    {"compound": "COc1ccc(-n2cc(O)c(-c3nc(-c4ccccc4)cs3)c2N)cc1", "note": "[5-amino-1-(4-methoxyphenyl)-4-(4-phenyl-1,3-thiazol-2-yl)-2H-pyrrol-3-one]", "values": [
      {"measurement": "IC50", "result": 13.4, "unit": "µM"}
    ]}
  ]
}
